These results are taken from PMC9849758, “Chemically diverse activity-based probes with unexpected inhibitory mechanisms targeting trypsin-like serine proteases” (Frontiers in Chemistry, 2023).

In experiment [1] the target is T1, CatG (Homo sapiens, UniProt P08311).
T1 sequence (P08311 21-255): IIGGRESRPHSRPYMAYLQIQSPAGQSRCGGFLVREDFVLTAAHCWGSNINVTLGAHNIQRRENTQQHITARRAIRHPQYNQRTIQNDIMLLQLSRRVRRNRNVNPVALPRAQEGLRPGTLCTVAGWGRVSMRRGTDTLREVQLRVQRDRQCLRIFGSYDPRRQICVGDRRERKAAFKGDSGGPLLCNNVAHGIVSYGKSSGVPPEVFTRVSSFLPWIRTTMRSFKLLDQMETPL
The experiment is described as follows: Jump dilution, determination of inhibition type. The format is biochemical. The arrangement: Cathepsin G (cathepsin G human neutrophil, Sigma-Aldrich); purchased Sigma-Aldrich. To be noted: inhibitor at 10 times IC50, 15 min, diluted 10-fold or 100-fold; Rev./Irrev. Here is the method:
The dissociation of the enzyme-inhibitor complex was monitored by substrate hydrolysis over time ([Joossens et al., 2006]).
Because ABPs are designed to be irreversible serine protease inhibitors, the IC50 is exclusively used as a first discriminatory evaluation. When an inhibitor is irreversible, its IC50 value not only depends on the substrate and enzyme concentration but also on the time of incubation with the enzyme before the reaction is started by adding the substrate. […] The progress curve in the presence of an irreversible inhibitor will show final velocities equal to zero (Figure 6C). In contrast, for a reversible inhibitor, progress curves have a non-zero final steady-state velocity (Figure 6A) ([McWhirter, 2021]). To corroborate the inhibitory mechanism of the compounds, jump-dilution assays were performed. These use an inhibitor concentration of 10-fold the IC50 for the incubation, and a posteriori, the reaction mixture is diluted 10-fold or 100-fold before adding the substrate. In the case of an irreversible inhibitor, enzymatic activity is not regained (Figure 6D), whereas, in the case of a reversible compound, a slow release of the inhibitor and a gradual increase of the enzymatic activity rate is observed (Figure 6B) ([Copeland, 2013]; [McWhirter, 2021]). The jump-dilution assays confirmed the behavior described by the progress curves.
2.2.2 Jump dilution results
Supplementary Table 2. Jump dilution of selected alkyne and desthiobiotin probes against a panel of trypsin-like serine proteases. […]
# R R DtBa 3 tryptase Thrombin uPA CatG
32b H Alk Irrev. Irrev. Rev. Irrev. Rev.
45b DtB Irrev. Irrev. Rev. N.D. N.D.
33b Alk Irrev. Irrev. Rev. Irrev. Rev.
46b Cl DtB Irrev. Irrev. Rev. N.D. N.D.
34b H Alk Rev. Rev. Rev. Irrev. Rev.
50b DtB Rev. Rev. Rev. Irrev. Rev.
35b Alk Rev. Rev. Rev. Irrev. Rev.
52b NHCOMe DtB Rev. Rev. Rev. Irrev. Rev.
36b Alk Rev. Rev. Rev. Irrev. Rev.
54b Cl DtB Rev. Rev. Rev. Irrev. Rev.
37b Alk Irrev. Irrev. N.D. Irrev. Irrev.
55b H DtB Irrev. Irrev. N.D. Irrev. Irrev.
38b Alk Irrev. Irrev. N.D. Irrev. Irrev.
56b NHCOMe DtB Irrev. Irrev. N.D. Irrev. Irrev.
39b Alk Irrev. Irrev. N.D. Irrev. Rev.
57b Cl DtB Irrev. Irrev. N.D. Irrev. Rev.
41b H Alk Irrev. Irrev. Irrev. N.D. N.D.
31b Pro-Lys H Alk Irrev. Irrev. Irrev. Irrev. N.D. a Alk: ABP precursor bearing an alkyne; DtB: desthiobiotin probe b Panel of serine proteases abbreviations: urokinase plasminogen activator (uPA), cathepsin G (catG) N.D.: IC50 is greater than 10µM, and jump dilution was not performed
2.2.3 Progress curves and Jump dilution experiments
Kinetic assays were performed in the following manner. The inhibitor was mixed with the substrate, and the buffer solution with the enzyme was added at the time zero. The progress curves show the release of para-nitroaniline (pNA) or 7-amino-4-methyl coumarin (AMC) as a function of time.
To monitor the dissociation of the inhibitor-enzyme, aliquots of the enzyme were incubated at 37 °C without and with the inhibitor at a concentration 10 times higher than its IC 50. The enzyme […]
min, the aliquots were diluted 10-fold or 100-fold into the substrate concentration and assay buffer used for the IC50 determination. The dissociation of the enzyme-inhibitor complex was monitored by substrate hydrolysis over time. Blue lines represent the control where no inhibitor was present. Pink lines represent the assay with inhibitor.

Experiment [2] deals with β-tryptase (Homo sapiens, UniProt P20231). The experiment is described as follows: Kinetic progress curves (kapp, K1, KI*, mechanism). The class given is biochemical. The arrangement: purchased EnzoLife Sciences. The note with it: for β-tryptase kapp: apparent second-order rate constant from progress curves; for β-tryptase kapp / Ki: mean ± SD; for β-tryptase mechanism of inhibition: defined by the progress curves: slow-binding (Rev.) or irreversible (Irrev.). Here is the method: Because the compounds described in this paper were previously described as irreversible inhibitors, the IC50 value is inversely correlated with the second-order rate constant of inactivation. For a simple pseudo-first-order inactivation process, the activity after incubation with inhibitor (vi) varies with the inhibitor concentration (i), as described in the following equation: vi=v0·e^−kit where v0 is the activity in the absence of an inhibitor, k is the second-order rate constant of inactivation, and t is the time. The inactivation rate constant was determined from the time course of inhibition.
β-tryptase, sequence (P20231 31-275): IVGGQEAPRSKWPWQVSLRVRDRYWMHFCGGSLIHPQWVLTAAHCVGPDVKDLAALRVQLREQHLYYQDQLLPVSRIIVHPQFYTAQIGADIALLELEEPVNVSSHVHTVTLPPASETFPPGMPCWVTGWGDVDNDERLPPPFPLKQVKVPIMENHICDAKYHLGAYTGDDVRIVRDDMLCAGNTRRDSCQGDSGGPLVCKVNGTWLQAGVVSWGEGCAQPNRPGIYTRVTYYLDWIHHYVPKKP
Kinetic assays were performed in the following manner. The inhibitor was mixed with the substrate, and the buffer solution with the enzyme was added at the time zero. The progress curves show the release of pNA or AMC as a function of time. Initially, no inhibitor is bound to the enzyme, and the tangent to the progress curve (dA/dt) is proportional to the free enzyme concentration. The free enzyme concentration decreases over time due to inhibitor binding kinetics, as described above. Progress curves were recorded in pseudo-first-order conditions ([I]0>>[E]0) and with less than 10% conversion of the substrate during the entire time course. In these conditions, dA/dt decreases exponentially with time. The progress curves were fitted with the integrated rate equation with GraFit7 to yield a value for kobs, a pseudo-first-order rate constant. At=Ao+vs∙t+vi−vs∙1−e^−kobs∙t/kobs where At is the absorbance at time t, A0 is the absorbance at time zero, vi is the initial rate and vs is the velocity at the steady-state.
The apparent second-order rate constant (kapp) was calculated from the slope of the linear part of the plot of kobs vs. the inhibitor concentration ([I]0). In the case of competition between the inhibitor and the substrate, kapp is smaller than the “real” second-order rate constant k discussed above because a certain fraction of the enzyme is present as an enzyme-substrate complex. kapp depends on the substrate concentration used in the experiment, as described by [Lambeir et al. (1996)].
The apparent equilibrium constants were obtained from the following equations, vi/vo=1/1+I/K1; vS/vo=1/1+I/KI* where vi is the initial rate, vs is the steady-state velocity and vo is the uninhibited initial rate.

[3] abbreviates: β-tryptase K1, apparent equilibrium constant of the first step of slow-binding.
Where [4] appears, read: β-tryptase KI*, apparent equilibrium constant of the overall process.

Entries after “also recorded” stand apart in the source; their conditions may differ. Where a name gives a salt, the structure may show the parent alone.

With `C#CCCCOC(=O)NC(CCCNC(=N)N)P(=O)(Oc1ccccc1)Oc1ccccc1` (stereo not shown) [32b], in experiment [1], the “CatG jump dilution result” value is listed as “Rev”. In experiment [2], the β-tryptase kapp was 41 ± 5 M⁻¹ s⁻¹ and the “β-tryptase mechanism of inhibition” value is listed as “Irrev”.
The matching figures for `C#CCCCOC(=O)NC(CCCNC(=N)N)P(=O)(Oc1ccc(Cl)cc1)Oc1ccc(Cl)cc1` (stereo not shown) [33b]: “Rev”, 28 × 10^2 ± 82 M^−1 s^−1 and “irreversibility; also recorded: irreversible; also recorded: Irrev”.
On to `C#CCCCOC(=O)NC(Cc1ccc(NC(=N)N)cc1)P(=O)(Oc1ccccc1)Oc1ccccc1` (stereo not shown) [34b], for which, in experiment [1], the “CatG jump dilution result” value is “Rev”. For the same compound, in experiment [2], the β-tryptase kapp was found to be 712 ± 41 M⁻¹ s⁻¹ and the “β-tryptase mechanism of inhibition” value is listed as “Rev”. Moreover, in experiment [2] (setting [3]), the Ki was 15.8 ± 5 µM. Besides, in experiment [2] (setting [4]), the Ki was determined as 1.11 ± 0.09 µM.
On to `C#CCCCOC(=O)NC(Cc1ccc(NC(=N)N)cc1)P(=O)(Oc1ccc(NC(C)=O)cc1)Oc1ccc(NC(C)=O)cc1` (stereo not shown) [35b], for which the “CatG jump dilution result” value in experiment [1] is “Rev”. Also, in experiment [2], the β-tryptase kapp is recorded as 70 × 10^2 ± 582 M^−1 s^−1 and the “β-tryptase mechanism of inhibition” value was “Rev”. Further, in experiment [2] (setting [3]), the Ki came to 3.2 ± 1.8 µM. In addition, the Ki in experiment [2] (setting [4]) was 0.12 ± 0.01 µM.
Consider `C#CCCCOC(=O)NC(Cc1ccc(NC(=N)N)cc1)P(=O)(Oc1ccc(Cl)cc1)Oc1ccc(Cl)cc1` (stereo not shown) [36b], for which the “CatG jump dilution result” value in experiment [1] is “Rev”. Also, in experiment [2], the β-tryptase kapp is recorded as 61 × 10^3 ± 6860 M^−1 s^−1. Besides, the “β-tryptase mechanism of inhibition” value in experiment [2] is “reversible and Rev”. For the same compound, the Ki in experiment [2] (setting [3]) turned out to be 0.34 ± 0.07 µM; in experiment [2] (setting [4]), 0.09 ± 0.01 µM.
For `C#CCCCOC(=O)NC(c1ccc(NC(=N)N)cc1)P(=O)(Oc1ccccc1)Oc1ccccc1.O=C(O)C(F)(F)F` (stereo not shown) [37b, Pent-4-yn-1-yl ((diphenoxyphosphoryl)(4-guanidinophenyl)methyl)carbamate trifluoroacetate salt], the “CatG jump dilution result” value in experiment [1] was “Irrev”. In experiment [2], the β-tryptase kapp worked out at 375 ± 34 M⁻¹ s⁻¹ and the “β-tryptase mechanism of inhibition” value is recorded as “Irrev”.
`C#CCCCOC(=O)NC(c1ccc(NC(=N)N)cc1)P(=O)(Oc1ccc(NC(C)=O)cc1)Oc1ccc(NC(C)=O)cc1` (stereo not shown) [38b, Pent-4-yn-1-yl ((bis(4-acetamidophenoxy)phosphoryl)(4-guanidinophenyl)methyl) carbamate]: in experiment [1], the “CatG jump dilution result” value is recorded as “Irrev”. For the same compound, in experiment [2], the β-tryptase kapp was 20 × 10^2 ± 54 M^−1 s^−1 and the “β-tryptase mechanism of inhibition” value is on record as “Irrev”.
As for `C#CCCCOC(=O)NC(c1ccc(NC(=N)N)cc1)P(=O)(Oc1ccc(Cl)cc1)Oc1ccc(Cl)cc1` (stereo not shown) [39b, Pent-4-yn-1-yl ((bis(4-chlorophenoxy)phosphoryl)(4-guanidinophenyl)methyl)carbamate], in experiment [1], the “CatG jump dilution result” value is on record as “Rev”. Also, in experiment [2], the “β-tryptase mechanism of inhibition” value is “irreversible; also recorded: Irrev”.
For the compound `C#CCCCOC(=O)NC(C1CCN(C(=N)N)CC1)P(=O)(Oc1ccccc1)Oc1ccccc1` (stereo not shown) [41b], in experiment [2], the β-tryptase kapp was determined as 27 ± 2 M⁻¹ s⁻¹ and the “β-tryptase mechanism of inhibition” value was “irreversible inhibition; also recorded: Irrev”.
The matching figures for `C[C@@H]1NC(=O)N[C@@H]1CCCCCC(=O)NCCOCCOCCOCCn1cc(CCCOC(=O)NC(CCCNC(=N)N)P(=O)(Oc2ccccc2)Oc2ccccc2)nn1` (stereo partly shown) [45b]: 237 ± 42 M⁻¹ s⁻¹ and “Irrev”.
For `C[C@@H]1NC(=O)N[C@@H]1CCCCCC(=O)NCCOCCOCCOCCn1cc(CCCOC(=O)NC(CCCNC(=N)N)P(=O)(Oc2ccc(Cl)cc2)Oc2ccc(Cl)cc2)nn1` (stereo partly shown) [46b], in that order: 75 × 10^2 ± 1475 M^−1 s^−1 and “Irrev”.
In the case of `C[C@@H]1NC(=O)N[C@@H]1CCCCCC(=O)NCCOCCOCCOCCn1cc(CCCOC(=O)NC(Cc2ccc(NC(=N)N)cc2)P(=O)(Oc2ccccc2)Oc2ccccc2)nn1` (stereo partly drawn) [50b, 3-(1-(18-((4R,5S)-5-methyl-2-oxoimidazolidin-4-yl)-13-oxo-3,6,9-trioxa-12-azaoctadecyl)-1H-1,2,3-triazol-4-yl)propyl (1-(diphenoxyphosphoryl)-2-(4-guanidinophenyl)ethyl)carbamate trifluoroacetate salt], the “CatG jump dilution result” value in experiment [1] is on record as “Rev”. The β-tryptase kapp in experiment [2] was 32 × 10^2 ± 613 M^−1 s^−1. For the same compound, the “β-tryptase mechanism of inhibition” value in experiment [2] was “Rev”. Besides, the Ki in experiment [2] (setting [3]) was 3.28 ± 0.5 µM; in experiment [2] (setting [4]) it was 0.41 ± 0.03 µM.
`CC(=O)Nc1ccc(OP(=O)(Oc2ccc(NC(C)=O)cc2)C(Cc2ccc(NC(=N)N)cc2)NC(=O)OCCCc2cn(CCOCCOCCOCCNC(=O)CCCCC[C@H]3NC(=O)N[C@H]3C)nn2)cc1` (stereo partly shown) [52b]: the “CatG jump dilution result” value in experiment [1] is recorded as “Rev”. Moreover, in experiment [2], the β-tryptase kapp is 18 × 10^3 ± 1184 M^−1 s^−1; the “β-tryptase mechanism of inhibition” value was “Reversible and Rev”. Further, in experiment [2] (setting [3]), the Ki is 0.68 ± 0.07 µM. Moreover, in experiment [2] (setting [4]), the Ki was 0.06 ± 0.003 µM.
For the compound `C[C@@H]1NC(=O)N[C@@H]1CCCCCC(=O)NCCOCCOCCOCCn1cc(CCCOC(=O)NC(Cc2ccc(NC(=N)N)cc2)P(=O)(Oc2ccc(Cl)cc2)Oc2ccc(Cl)cc2)nn1` (stereo partly shown) [54b], in experiment [1], the “CatG jump dilution result” value is listed as “Rev”. The “β-tryptase mechanism of inhibition” value in experiment [2] was “reversible slow-binding mechanism; also recorded: * ^d Rev”. In addition, the Ki in experiment [2] (setting [3]) was 0.13 ± 0.03 µM; in experiment [2] (setting [4]), 0.02 ± 0.001 µM.
Take `C[C@@H]1NC(=O)N[C@@H]1CCCCCC(=O)NCCOCCOCCOCCn1cc(CCCOC(=O)NC(c2ccc(NC(=N)N)cc2)P(=O)(Oc2ccccc2)Oc2ccccc2)nn1` (stereo partly shown) [55b]: in experiment [1], the “CatG jump dilution result” value was “Irrev”. In experiment [2], the β-tryptase kapp was determined as 347 ± 19 M⁻¹ s⁻¹ and the “β-tryptase mechanism of inhibition” value is “Irrev”.
